Data taken from patent US8765748B2, “Indazolyl, benzimidazolyl, benzotriazolyl substituted indolinone derivatives as kinase inhibitors useful in the treatment of cancer” (University Health Network, priority 2007, dated 2014).

Key:
Test in all cases: Kinase Selectivity Assay (CEREP, HTRF)
Type in all cases: biochemical
JNK 2 = JNK 2 (Homo sapiens, UniProt P45984); conditions: read-out: % Inhibition at 10 μM Concentration, JNK 2
Method: (§1) kinase, ROCK2, RSK2, Src kinase, Syk, and TRKA. The % Inhibition was determined

FLT-1 kinase (VEGFR1) = biological target: T1, FLT-1 kinase (VEGFR1) (Homo sapiens, UniProt P17948); conditions: read-out: % Inhibition at 10 μM Concentration, FLT-1 (VEGFR1)
T1 construct: CEREP, France (ran the assays)
Method: as §1

Brk = biological target: T2, Brk (Homo sapiens, UniProt Q13882); conditions: read-out: % Inhibition at 10 μM Concentration, Brk
T2 construct: CEREP, France (ran the assays)
Method: as §1

ERK2 (P42mapk) = biological target: T3, ERK2 (P42mapk) (Homo sapiens, UniProt P28482); conditions: read-out: % Inhibition at 10 μM Concentration, ERK (P42mapk)
T3 construct: CEREP, France (ran the assays)
Method: as §1

FLT-3 kinase = biological target: T4, FLT-3 kinase (Homo sapiens, UniProt P36888); conditions: read-out: % Inhibition at 10 μM Concentration, FLT-3
T4 sequence (P36888 27-993): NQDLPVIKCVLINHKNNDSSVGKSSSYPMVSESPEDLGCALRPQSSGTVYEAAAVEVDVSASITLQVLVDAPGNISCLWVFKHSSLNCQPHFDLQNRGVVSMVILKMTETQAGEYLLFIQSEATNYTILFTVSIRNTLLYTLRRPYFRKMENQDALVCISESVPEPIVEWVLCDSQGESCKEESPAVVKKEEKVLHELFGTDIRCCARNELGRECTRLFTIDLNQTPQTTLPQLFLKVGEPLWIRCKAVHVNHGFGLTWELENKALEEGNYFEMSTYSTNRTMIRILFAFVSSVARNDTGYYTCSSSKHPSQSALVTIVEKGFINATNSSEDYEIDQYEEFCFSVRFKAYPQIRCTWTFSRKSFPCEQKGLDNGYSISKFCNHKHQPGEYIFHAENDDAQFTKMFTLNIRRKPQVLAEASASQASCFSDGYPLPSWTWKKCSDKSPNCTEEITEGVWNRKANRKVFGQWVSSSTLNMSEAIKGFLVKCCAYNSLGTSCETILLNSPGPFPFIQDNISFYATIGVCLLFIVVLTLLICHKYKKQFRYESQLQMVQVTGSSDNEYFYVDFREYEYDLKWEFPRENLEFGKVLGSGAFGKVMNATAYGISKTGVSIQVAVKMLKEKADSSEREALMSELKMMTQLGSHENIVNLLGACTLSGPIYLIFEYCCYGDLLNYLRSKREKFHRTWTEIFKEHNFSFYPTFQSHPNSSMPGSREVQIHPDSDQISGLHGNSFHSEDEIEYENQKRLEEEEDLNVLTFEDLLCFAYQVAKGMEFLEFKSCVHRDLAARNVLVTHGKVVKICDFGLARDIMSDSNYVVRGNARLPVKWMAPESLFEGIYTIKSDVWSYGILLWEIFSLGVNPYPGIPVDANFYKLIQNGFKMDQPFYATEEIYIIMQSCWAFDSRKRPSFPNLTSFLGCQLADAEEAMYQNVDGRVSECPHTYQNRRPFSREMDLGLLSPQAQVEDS
Method: as §1

BMX kinase (Etk) = biological target: T5, BMX kinase (Etk) (Homo sapiens, UniProt P51813); conditions: read-out: % Inhibition at 10 μM Concentration, BMX (Etk)
T5 construct: CEREP, France (ran the assays)
T5 sequence (P51813 1-675): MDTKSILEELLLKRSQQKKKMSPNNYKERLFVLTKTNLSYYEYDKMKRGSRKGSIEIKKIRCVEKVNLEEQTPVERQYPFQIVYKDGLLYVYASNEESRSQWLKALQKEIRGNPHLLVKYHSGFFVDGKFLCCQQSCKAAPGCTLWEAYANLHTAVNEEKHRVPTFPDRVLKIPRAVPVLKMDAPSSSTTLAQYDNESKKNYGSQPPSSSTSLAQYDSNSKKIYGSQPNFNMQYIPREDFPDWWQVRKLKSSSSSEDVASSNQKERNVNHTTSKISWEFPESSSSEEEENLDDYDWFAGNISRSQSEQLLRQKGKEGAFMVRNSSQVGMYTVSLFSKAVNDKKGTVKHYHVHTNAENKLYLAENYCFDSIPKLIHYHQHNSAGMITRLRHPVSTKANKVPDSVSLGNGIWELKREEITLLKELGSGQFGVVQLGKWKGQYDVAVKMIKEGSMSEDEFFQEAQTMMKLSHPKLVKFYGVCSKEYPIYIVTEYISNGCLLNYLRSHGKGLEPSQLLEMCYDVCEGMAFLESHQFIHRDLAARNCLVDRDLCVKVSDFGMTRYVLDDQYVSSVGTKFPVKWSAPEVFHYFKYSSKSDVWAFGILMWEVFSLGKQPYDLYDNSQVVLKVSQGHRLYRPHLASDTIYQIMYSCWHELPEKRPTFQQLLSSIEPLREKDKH
Method: as §1

Fyn kinase = Fyn kinase (Homo sapiens, UniProt P06241); conditions: read-out: % Inhibition at 10 μM Concentration, Fyn
Method: as §1

p38d kinase = biological target: T6, p38d kinase (Homo sapiens, UniProt O15264); conditions: read-out: % Inhibition at 10 μM Concentration, p38delta
T6 sequence (O15264 1-365): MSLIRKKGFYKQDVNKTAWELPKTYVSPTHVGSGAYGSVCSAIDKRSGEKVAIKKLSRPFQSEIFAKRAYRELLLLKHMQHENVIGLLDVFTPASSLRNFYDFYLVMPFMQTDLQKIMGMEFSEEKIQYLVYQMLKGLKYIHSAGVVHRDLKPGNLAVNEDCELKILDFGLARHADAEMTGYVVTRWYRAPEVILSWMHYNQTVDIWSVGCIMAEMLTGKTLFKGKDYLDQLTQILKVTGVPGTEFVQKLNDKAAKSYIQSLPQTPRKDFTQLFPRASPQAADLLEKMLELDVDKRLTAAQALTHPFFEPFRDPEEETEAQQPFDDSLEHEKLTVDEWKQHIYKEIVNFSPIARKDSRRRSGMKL
Method: as §1

c-Met kinase = biological target: T7, c-Met kinase (Homo sapiens, UniProt P08581); conditions: read-out: % Inhibition at 10 μM Concentration, c-Met
T7 construct: CEREP, France (ran the assays)
Method: as §1

ERK1 = biological target: T8, ERK1 (Homo sapiens, UniProt P27361); conditions: read-out: % Inhibition at 10 μM Concentration, ERK1
T8 construct: CEREP, France (ran the assays)
Method: as §1

ROCK2 = ROCK2 (Homo sapiens, UniProt O75116); conditions: read-out: % Inhibition at 10 μM Concentration, ROCK2
Method: as §1

Lck kinase = Lck kinase (Homo sapiens, UniProt P06239); conditions: read-out: % Inhibition at 10 μM Concentration, Lck
Method: as §1

Sequence of Fyn kinase (P06241 whole entry): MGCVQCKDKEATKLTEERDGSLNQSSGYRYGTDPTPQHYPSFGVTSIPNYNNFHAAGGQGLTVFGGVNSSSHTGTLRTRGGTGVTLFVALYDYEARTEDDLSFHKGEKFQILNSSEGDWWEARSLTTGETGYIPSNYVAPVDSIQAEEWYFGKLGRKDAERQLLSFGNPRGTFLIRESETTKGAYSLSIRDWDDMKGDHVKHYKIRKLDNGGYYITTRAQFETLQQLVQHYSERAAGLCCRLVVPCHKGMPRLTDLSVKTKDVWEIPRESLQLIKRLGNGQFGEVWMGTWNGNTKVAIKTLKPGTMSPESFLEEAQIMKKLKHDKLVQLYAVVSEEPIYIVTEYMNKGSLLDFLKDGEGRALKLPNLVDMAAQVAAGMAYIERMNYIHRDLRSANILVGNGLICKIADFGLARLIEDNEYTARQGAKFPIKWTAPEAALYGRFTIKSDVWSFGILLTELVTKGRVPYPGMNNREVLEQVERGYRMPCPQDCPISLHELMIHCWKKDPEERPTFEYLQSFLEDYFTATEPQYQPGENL
Sequence of ROCK2 (O75116 whole entry): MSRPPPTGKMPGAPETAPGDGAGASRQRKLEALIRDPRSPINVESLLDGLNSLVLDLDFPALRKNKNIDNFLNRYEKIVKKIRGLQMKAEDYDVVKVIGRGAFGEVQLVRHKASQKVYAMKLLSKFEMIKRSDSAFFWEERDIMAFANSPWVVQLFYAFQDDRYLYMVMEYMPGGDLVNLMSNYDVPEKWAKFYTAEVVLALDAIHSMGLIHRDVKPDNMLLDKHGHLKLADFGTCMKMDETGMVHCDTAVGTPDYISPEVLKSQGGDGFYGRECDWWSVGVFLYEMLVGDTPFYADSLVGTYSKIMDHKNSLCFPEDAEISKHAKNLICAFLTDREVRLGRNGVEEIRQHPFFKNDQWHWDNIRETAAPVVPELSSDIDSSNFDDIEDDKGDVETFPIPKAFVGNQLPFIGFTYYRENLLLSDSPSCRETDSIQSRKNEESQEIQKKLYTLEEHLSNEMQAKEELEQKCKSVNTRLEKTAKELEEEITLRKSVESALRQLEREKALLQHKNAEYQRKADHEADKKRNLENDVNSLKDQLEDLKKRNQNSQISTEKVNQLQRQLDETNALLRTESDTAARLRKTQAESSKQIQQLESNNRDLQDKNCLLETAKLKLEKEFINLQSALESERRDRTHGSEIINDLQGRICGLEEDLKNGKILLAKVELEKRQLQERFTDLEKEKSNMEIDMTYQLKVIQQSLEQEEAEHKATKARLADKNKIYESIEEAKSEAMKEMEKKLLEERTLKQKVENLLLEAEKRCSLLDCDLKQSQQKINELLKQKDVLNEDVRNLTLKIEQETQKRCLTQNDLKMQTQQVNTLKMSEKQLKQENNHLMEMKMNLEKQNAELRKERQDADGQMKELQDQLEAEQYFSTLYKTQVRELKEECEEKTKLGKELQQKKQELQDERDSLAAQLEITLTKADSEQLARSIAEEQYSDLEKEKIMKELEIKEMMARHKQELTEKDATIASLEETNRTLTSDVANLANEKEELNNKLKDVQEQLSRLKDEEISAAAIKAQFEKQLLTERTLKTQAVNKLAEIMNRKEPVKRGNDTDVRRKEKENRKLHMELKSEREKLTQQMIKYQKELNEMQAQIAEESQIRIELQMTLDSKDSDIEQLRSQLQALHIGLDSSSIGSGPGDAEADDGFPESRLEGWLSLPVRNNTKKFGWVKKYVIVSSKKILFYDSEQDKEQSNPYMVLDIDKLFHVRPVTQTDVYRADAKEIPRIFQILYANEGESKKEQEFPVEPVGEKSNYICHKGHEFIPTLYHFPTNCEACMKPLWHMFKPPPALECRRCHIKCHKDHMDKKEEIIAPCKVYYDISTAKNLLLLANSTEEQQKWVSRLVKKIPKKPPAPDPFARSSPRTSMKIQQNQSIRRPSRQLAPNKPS
T2 sequence (Q13882 whole entry): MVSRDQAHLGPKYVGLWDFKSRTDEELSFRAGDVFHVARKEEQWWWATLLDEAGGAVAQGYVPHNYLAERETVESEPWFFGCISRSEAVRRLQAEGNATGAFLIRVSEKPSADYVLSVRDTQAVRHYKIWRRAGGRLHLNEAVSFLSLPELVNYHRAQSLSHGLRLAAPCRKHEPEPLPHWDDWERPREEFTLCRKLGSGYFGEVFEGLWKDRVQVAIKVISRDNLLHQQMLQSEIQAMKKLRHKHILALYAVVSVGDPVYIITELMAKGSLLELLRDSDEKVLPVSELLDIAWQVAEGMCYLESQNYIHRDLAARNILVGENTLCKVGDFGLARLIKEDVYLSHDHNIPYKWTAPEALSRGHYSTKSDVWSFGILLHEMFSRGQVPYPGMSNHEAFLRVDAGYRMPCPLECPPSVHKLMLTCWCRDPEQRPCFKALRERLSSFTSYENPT
T7 sequence (P08581 25-1390): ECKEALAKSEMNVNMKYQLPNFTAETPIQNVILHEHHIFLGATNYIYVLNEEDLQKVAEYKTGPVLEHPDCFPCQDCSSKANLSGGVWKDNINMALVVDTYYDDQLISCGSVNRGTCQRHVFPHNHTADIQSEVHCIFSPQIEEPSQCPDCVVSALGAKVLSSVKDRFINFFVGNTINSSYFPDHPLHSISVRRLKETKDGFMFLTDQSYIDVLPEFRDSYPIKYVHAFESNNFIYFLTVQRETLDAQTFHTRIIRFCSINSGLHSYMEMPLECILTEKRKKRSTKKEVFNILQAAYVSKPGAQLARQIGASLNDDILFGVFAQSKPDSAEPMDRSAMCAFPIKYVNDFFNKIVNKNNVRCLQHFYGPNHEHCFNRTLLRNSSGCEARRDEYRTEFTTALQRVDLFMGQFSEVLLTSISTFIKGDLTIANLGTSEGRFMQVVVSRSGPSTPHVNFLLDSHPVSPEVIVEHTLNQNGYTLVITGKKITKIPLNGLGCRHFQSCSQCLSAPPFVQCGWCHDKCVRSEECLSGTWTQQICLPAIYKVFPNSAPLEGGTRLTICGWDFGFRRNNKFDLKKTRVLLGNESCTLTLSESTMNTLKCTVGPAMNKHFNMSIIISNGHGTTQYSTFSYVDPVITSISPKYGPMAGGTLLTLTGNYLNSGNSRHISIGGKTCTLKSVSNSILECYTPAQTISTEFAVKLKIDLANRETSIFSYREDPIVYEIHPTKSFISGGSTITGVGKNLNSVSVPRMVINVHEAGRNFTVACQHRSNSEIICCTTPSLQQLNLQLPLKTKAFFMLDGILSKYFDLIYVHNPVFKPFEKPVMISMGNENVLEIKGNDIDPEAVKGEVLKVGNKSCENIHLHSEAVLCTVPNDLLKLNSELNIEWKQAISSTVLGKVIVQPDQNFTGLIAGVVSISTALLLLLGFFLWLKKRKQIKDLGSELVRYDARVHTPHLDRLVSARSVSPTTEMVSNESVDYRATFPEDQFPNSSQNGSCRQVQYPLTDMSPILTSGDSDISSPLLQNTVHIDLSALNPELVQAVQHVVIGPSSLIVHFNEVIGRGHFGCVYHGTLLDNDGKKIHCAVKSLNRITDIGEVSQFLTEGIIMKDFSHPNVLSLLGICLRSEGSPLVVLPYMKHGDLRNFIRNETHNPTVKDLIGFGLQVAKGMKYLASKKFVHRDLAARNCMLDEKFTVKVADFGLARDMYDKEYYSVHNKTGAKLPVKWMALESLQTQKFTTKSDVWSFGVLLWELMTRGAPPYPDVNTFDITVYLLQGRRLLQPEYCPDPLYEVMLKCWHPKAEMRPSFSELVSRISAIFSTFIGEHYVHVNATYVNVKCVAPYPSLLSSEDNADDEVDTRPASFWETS
T3 sequence (P28482 whole entry): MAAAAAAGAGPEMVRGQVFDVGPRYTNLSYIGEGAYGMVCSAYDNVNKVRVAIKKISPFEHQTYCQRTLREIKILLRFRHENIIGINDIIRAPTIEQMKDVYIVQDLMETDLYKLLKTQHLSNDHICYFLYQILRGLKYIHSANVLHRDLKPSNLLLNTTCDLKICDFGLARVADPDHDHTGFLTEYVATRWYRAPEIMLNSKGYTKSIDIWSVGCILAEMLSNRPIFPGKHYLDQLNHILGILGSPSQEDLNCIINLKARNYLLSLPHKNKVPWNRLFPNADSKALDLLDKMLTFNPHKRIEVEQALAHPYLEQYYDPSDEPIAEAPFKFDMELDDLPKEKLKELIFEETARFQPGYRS
T8 sequence (P27361 whole entry): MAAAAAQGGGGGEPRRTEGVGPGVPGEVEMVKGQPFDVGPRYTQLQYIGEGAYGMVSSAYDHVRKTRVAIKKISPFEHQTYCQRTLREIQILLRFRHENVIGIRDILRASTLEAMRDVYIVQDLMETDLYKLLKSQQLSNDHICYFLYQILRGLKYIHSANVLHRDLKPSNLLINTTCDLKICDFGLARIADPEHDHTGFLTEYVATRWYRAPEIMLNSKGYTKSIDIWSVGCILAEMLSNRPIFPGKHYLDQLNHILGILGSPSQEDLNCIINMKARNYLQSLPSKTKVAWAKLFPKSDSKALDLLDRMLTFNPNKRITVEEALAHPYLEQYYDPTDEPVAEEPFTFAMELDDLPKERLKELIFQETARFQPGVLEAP
Sequence of JNK 2 (P45984 whole entry): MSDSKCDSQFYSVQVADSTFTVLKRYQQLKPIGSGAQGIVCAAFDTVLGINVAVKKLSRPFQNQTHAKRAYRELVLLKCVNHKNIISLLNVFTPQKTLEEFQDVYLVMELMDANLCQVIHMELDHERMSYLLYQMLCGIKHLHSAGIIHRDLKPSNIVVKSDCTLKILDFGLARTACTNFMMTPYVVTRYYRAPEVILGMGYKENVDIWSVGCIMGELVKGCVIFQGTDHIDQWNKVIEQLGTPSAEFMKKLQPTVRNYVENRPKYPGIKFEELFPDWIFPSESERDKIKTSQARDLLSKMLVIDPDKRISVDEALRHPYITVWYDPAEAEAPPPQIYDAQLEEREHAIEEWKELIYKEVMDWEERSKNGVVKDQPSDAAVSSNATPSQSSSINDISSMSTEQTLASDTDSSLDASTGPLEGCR

| SMILES | inhibition at 10 µM (JNK 2) | inhibition at 10 µM (FLT-1 kinase (VEGFR1)) | inhibition at 10 µM (Brk) | inhibition at 10 µM (ERK2 (P42mapk)) | inhibition at 10 µM (FLT-3 kinase) | inhibition at 10 µM (BMX kinase (Etk)) | inhibition at 10 µM (Fyn kinase) | inhibition at 10 µM (p38d kinase) | inhibition at 10 µM (c-Met kinase) | inhibition at 10 µM (ERK1) | inhibition at 10 µM (ROCK2) | inhibition at 10 µM (Lck kinase) |
| --- | --- | --- | --- | --- | --- | --- | --- | --- | --- | --- | --- | --- |
| O=C1Nc2ccccc2C1=Cc1ccc2c(/C=C/c3ccccn3)n[nH]c2c1 (mixture of isomers) [Example A41, (E and Z)-3-((3-((E)-2-(pyridin-2-yl)vinyl)-1H-indazol-6-yl)methylene)indolin-2-one] | 52% | 99% | 40% | 14% | 100% | 53% | 91% | -5% | 35% | 13% | -3% | 88% |
| COc1ccc2c(c1)C(=Cc1ccc3c(-c4ccc(N5CCN(C)CC5)nc4)n[nH]c3c1)C(=O)N2 (mixture of isomers) [Example A97, (E and Z)-5-methoxy-3-((3-(6-(4-methylpiperazin-1-yl)pyridin-3-yl)-1H-indazol-6-yl)methylene)indolin-2-one] | 14% | 73% | 7% | -9% | 100% | 9% | 13% | 13% | 28% | 10% | 22% | 89% |
| O=C1Nc2ccccc2/C1=C\c1ccc2[nH]nnc2c1 [Example A1, (E)-3-((1H-benzo[d][1,2,3]triazol-5-yl)methylene)indolin-2-one] | 13% | 0% | 5% | 3% | 93% |  | 24% | 0% | -20% | 6% | 1% |  |
| O=C1Nc2ccccc2/C1=C\c1ccc2cn[nH]c2c1 [Example A5, (E)-3-((1H-indazol-6-yl)methylene)indolin-2-one] | 14% | 16% | -6% | 0% | 76% | -3% | 5% | -8% | 2% | 6% | 3% | 0% |
| O=C1Nc2ccccc2/C1=C\c1ccc2c(/C=C/c3ccccc3Cl)n[nH]c2c1 [Example A60, (E)-3-((3-((E)-2-chlorostyryl)-1H-indazol-6-yl)methylene)indolin-2-one] | 3% | 42% | 4% | 2% | 10% | 18% | 70% | 3% | 0% | 1% | -1% | 30% |
